Measurements taken from EPA's ToxRefDB 2.

Columns and labels:
mouse [1] = details: Subchronic oral toxicity in rodents, cd1, Gavage/Intubation, dose end: 13 week, group: systemic, systemic / clinical chemistry / alanine aminotransferase (alt/sgpt) / alanine aminotransferase (alt/sgpt) + systemic / clinical chemistry / …
mouse [2] = details: Sub-acute repeat dose toxicity, cd1, Oral, Gavage/Intubation, dose end: 4 week, group: systemic
rat [3] = details: Prenatal developmental toxicity study, sprague dawley, Oral, Gavage/Intubation, dose end: 17 GD
mouse [4] = details: Sub-acute repeat dose toxicity, cd1, Oral, Gavage/Intubation, dose end: 4 week, group: systemic; remark: listed apart in the source
rabbit [5] = details: Prenatal developmental toxicity study, new zealand white, Oral, Gavage/Intubation, dose end: 19 GD
rabbit [6] = details: Prenatal developmental toxicity study; new zealand white; Oral; Gavage/Intubation; dose end: 19 GD; group: maternal; systemic / in life observation / body weight / body weight gain + systemic / in life observation / clinical signs / anogenital staining + …
rat [7] = details: Sub-acute repeat dose toxicity; Oral; Gavage/Intubation; dose end: 7 day; group: systemic; systemic / clinical chemistry / cholesterol / cholesterol + systemic / clinical chemistry / gamma glutamyl transferase (ggt) / gamma …
rat [8] = details: Sub-acute repeat dose toxicity, Oral, Gavage/Intubation, dose end: 7 day, group: systemic
rat [9] = details: Sub-acute repeat dose toxicity; Oral; Feed; dose end: 14 day; group: systemic; systemic / in life observation / clinical signs / defecation + systemic / in life observation / clinical signs / hunched posture + systemic…
mouse [10] = details: Sub-acute repeat dose toxicity, Oral, Gavage/Intubation, dose end: 30 day, group: systemic
mouse [11] = details: Fertility (Segment I), Oral, Gavage/Intubation, dose end: 1 generation
dog [12] = details: Sub-acute repeat dose toxicity, beagle, Oral, Gavage/Intubation, dose end: 29 day, group: systemic
dog [13] = details: Sub-acute repeat dose toxicity, beagle, Oral, Gavage/Intubation, dose end: 7 day, group: systemic
mouse [14] = details: Fertility (Segment I), Oral, Gavage/Intubation, dose end: 1 generation; remark: listed apart in the source
rat [15] = details: Sub-acute repeat dose toxicity; Oral; Gavage/Intubation; dose end: 7 day; group: systemic; systemic / organ weight / adrenal gland / absolute + systemic / organ weight / liver / absolute + systemic / pathology microscopic / kidney…
rat [16] = details: Sub-acute repeat dose toxicity; Oral; Gavage/Intubation; dose end: 7 day; group: systemic; systemic / pathology microscopic / kidney / hyaline droplet + systemic / pathology microscopic / kidney / regeneration + systemic / …
rat [17] = details: Sub-acute repeat dose toxicity; Oral; Gavage/Intubation; dose end: 7 day; group: systemic; systemic / clinical chemistry / globulins / globulins + systemic / clinical chemistry / bilirubin / total bilirubin + systemic / organ …
mouse [18] = details: Sub-acute repeat dose toxicity; Oral; Feed; dose end: 14 day; group: systemic; systemic / in life observation / clinical signs / [other] + systemic / in life observation / clinical signs / anogenital staining + systemic…
rat [19] = details: Sub-acute repeat dose toxicity; Injection; Intravenous; dose end: 7 day; group: systemic; systemic / hematology / platelet / platelet + systemic / organ weight / liver / absolute + systemic / pathology microscopic / liver / …
[20] = systemic / in life observation / clinical signs / alopecia + systemic / in life observation / clinical signs / scabbing + systemic / organ …
[21] = systemic / organ weight / liver / absolute + systemic / organ weight / liver / relative to body weight + systemic / pathology gross / lung…
[22] = group: developmental, systemic / in life observation / body weight / fetal weight
[23] = group: maternal, reproductive / reproductive performance / implantations / implantations + reproductive / reproductive performance / postimplantation loss / …
[24] = group: maternal, systemic / in life observation / body weight / body weight + systemic / in life observation / clinical signs / piloerection + systemic / in …
[25] = systemic / in life observation / clinical signs / alopecia + systemic / in life observation / clinical signs / external lesion(s) + systemic…
[26] = systemic / in life observation / clinical signs / scabbing + systemic / in life observation / body weight / body weight + systemic / in life…
[27] = group: maternal, systemic / in life observation / body weight / body weight gain + systemic / in life observation / clinical signs / defecation + systemic / …
[28] = systemic / pathology microscopic / adrenal gland / hypertrophy + systemic / pathology microscopic / kidney / regeneration + systemic / …
[29] = systemic / clinical chemistry / alanine aminotransferase (alt/sgpt) / alanine aminotransferase (alt/sgpt) + systemic / clinical chemistry / …
[30] = systemic / organ weight / liver / absolute + systemic / pathology microscopic / liver / hypertrophy
[31] = group: maternal, reproductive / reproductive performance / mating / mating + reproductive / reproductive performance / precoital interval / precoital …
[32] = group: parental, systemic / in life observation / body weight / body weight gain + systemic / in life observation / food consumption / food consumption + …
[33] = systemic / in life observation / clinical signs / arrhythmia + systemic / organ weight / testes / absolute + systemic / organ weight / …
[34] = systemic / in life observation / food consumption / food consumption + systemic / pathology microscopic / liver / depletion glycogen + …
[35] = systemic / clinical chemistry / alanine aminotransferase (alt/sgpt) / alanine aminotransferase (alt/sgpt) + systemic / pathology microscopic…
[36] = systemic / clinical chemistry / alkaline phosphatase (alp/alk) / alkaline phosphatase (alp/alk) + systemic / clinical chemistry / …
[37] = group: parental, systemic / in life observation / body weight / body weight gain

CCc1c(C(=O)NN2CCCCC2)nn(-c2ccc(Cl)cc2Cl)c1-c1ccc(Br)cc1 [Surinabant]
LEL (mouse [1]): 100 mg/kg/day
LOAEL (mouse [1]): > 1000 mg/kg/day
NEL (mouse [1]): < 100 mg/kg/day
NOAEL (mouse [1]): ≥ 1000 mg/kg/day
LOAEL (mouse [2]; [20]): > 4000 mg/kg/day
NOAEL (mouse [2]; [20]): ≥ 4000 mg/kg/day
LEL (mouse [2]; [21]): 1000 mg/kg/day
NEL (mouse [2]; [21]): < 1000 mg/kg/day
LEL (rat [3]; [22]): 100 mg/kg/day
LOAEL (rat [3]; [22]): 100 mg/kg/day
NEL (rat [3]; [22]): 10 mg/kg/day
NOAEL (rat [3]; [22]): 10 mg/kg/day
LOAEL (rat [3]; [23]): 100 mg/kg/day
NOAEL (rat [3]; [23]): 10 mg/kg/day
LEL (rat [3]; [24]): 10 mg/kg/day
NEL (rat [3]; [24]): < 10 mg/kg/day
LOAEL (mouse [4]; [25]): > 4000 mg/kg/day
NOAEL (mouse [4]; [25]): ≥ 4000 mg/kg/day
LEL (mouse [4]; [26]): 1000 mg/kg/day
NEL (mouse [4]; [26]): < 1000 mg/kg/day
LEL (rabbit [5]; [22]): 1 mg/kg/day
LOAEL (rabbit [5]; [22]): > 20 mg/kg/day
NEL (rabbit [5]; [22]): < 1 mg/kg/day
NOAEL (rabbit [5]; [22]): ≥ 20 mg/kg/day
LEL (rabbit [5]; [27]): 1 mg/kg/day
LOAEL (rabbit [5]; [27]): > 20 mg/kg/day
NEL (rabbit [5]; [27]): < 1 mg/kg/day
NOAEL (rabbit [5]; [27]): ≥ 20 mg/kg/day
LEL (rabbit [6]): 0.5 mg/kg/day
LOAEL (rabbit [6]): 2 mg/kg/day
NEL (rabbit [6]): < 0.5 mg/kg/day
NOAEL (rabbit [6]): 0.5 mg/kg/day

CCc1nn(CCO)c(CC)c1Oc1cc(C#N)cc(C#N)c1 [Lersivirine]
LOAEL (rat [7]): > 35 mg/kg/day
NEL (rat [7]): < 35 mg/kg/day
NOAEL (rat [7]): ≥ 35 mg/kg/day
LOAEL (rat [8]; [28]): > 150 mg/kg/day
NOAEL (rat [8]; [28]): ≥ 150 mg/kg/day
NEL (rat [8]; systemic / pathology microscopic / kidney / regeneration + systemic / pathology microscopic / adrenal gland / vacuolization + systemic / …): < 35 mg/kg/day
LOAEL (rat [9]): > 1500 mg/kg/day
NEL (rat [9]): 750 mg/kg/day
NOAEL (rat [9]): ≥ 1500 mg/kg/day
LOAEL (mouse [10]; [29]): > 500 mg/kg/day
NOAEL (mouse [10]; [29]): ≥ 500 mg/kg/day
LEL (mouse [10]; [30]): 50 mg/kg/day
NEL (mouse [10]; [30]): < 50 mg/kg/day
LEL (mouse [11]; [31]): 700 mg/kg/day
LOAEL (mouse [11]; [31]): > 700 mg/kg/day
NEL (mouse [11]; [31]): 200 mg/kg/day
NOAEL (mouse [11]; [31]): ≥ 700 mg/kg/day
LEL (mouse [11]; [32]): 700 mg/kg/day
LOAEL (mouse [11]; [32]): > 700 mg/kg/day
NEL (mouse [11]; [32]): 200 mg/kg/day
NOAEL (mouse [11]; [32]): ≥ 700 mg/kg/day
LEL (dog [12]; [33]): 10 mg/kg/day
NEL (dog [12]; [33]): < 10 mg/kg/day
LOAEL (dog [12]; [34]): > 50 mg/kg/day
NOAEL (dog [12]; [34]): ≥ 50 mg/kg/day
LOAEL (dog [13]; [35]): > 150 mg/kg/day
NOAEL (dog [13]; [35]): ≥ 150 mg/kg/day
LEL (dog [13]; [36]): 10 mg/kg/day
NEL (dog [13]; [36]): < 10 mg/kg/day
LEL (mouse [14]; [31]): 700 mg/kg/day
LOAEL (mouse [14]; [31]): > 700 mg/kg/day
NEL (mouse [14]; [31]): 200 mg/kg/day
NOAEL (mouse [14]; [31]): ≥ 700 mg/kg/day
LEL (mouse [14]; [37]): 200 mg/kg/day
LOAEL (mouse [14]; [37]): > 700 mg/kg/day
NEL (mouse [14]; [37]): 70 mg/kg/day
NOAEL (mouse [14]; [37]): ≥ 700 mg/kg/day
LOAEL (rat [15]): > 35 mg/kg/day
NEL (rat [15]): < 35 mg/kg/day
NOAEL (rat [15]): ≥ 35 mg/kg/day
LEL (rat [16]): 23 mg/kg/day
LOAEL (rat [16]): > 100 mg/kg/day
NEL (rat [16]): < 23 mg/kg/day
NOAEL (rat [16]): ≥ 100 mg/kg/day
LOAEL (rat [17]): > 150 mg/kg/day
NEL (rat [17]): < 150 mg/kg/day
NOAEL (rat [17]): ≥ 150 mg/kg/day
LOAEL (mouse [18]): > 3000 mg/kg/day
NEL (mouse [18]): 750 mg/kg/day
NOAEL (mouse [18]): ≥ 3000 mg/kg/day
LOAEL (rat [19]): > 35 mg/kg/day
NEL (rat [19]): < 35 mg/kg/day
NOAEL (rat [19]): ≥ 35 mg/kg/day
